Data as given in US7935722B2 (Eli Lilly and Company, priority 2005, dated 2011).
pEC50, pKi: −log10 of the molar value. Where two headings read alike, the source gives them in different places.

Columns and labels:
[1] = biological target: T1, human AR (androgen receptor) (Homo sapiens, UniProt P10275); test: Steroid hormone nuclear receptor binding assay, AR binding
T1 construct: expressed in transfected cells; host or cells: 293 cells (293-AR lysate)
T1 sequence (P10275 1-920): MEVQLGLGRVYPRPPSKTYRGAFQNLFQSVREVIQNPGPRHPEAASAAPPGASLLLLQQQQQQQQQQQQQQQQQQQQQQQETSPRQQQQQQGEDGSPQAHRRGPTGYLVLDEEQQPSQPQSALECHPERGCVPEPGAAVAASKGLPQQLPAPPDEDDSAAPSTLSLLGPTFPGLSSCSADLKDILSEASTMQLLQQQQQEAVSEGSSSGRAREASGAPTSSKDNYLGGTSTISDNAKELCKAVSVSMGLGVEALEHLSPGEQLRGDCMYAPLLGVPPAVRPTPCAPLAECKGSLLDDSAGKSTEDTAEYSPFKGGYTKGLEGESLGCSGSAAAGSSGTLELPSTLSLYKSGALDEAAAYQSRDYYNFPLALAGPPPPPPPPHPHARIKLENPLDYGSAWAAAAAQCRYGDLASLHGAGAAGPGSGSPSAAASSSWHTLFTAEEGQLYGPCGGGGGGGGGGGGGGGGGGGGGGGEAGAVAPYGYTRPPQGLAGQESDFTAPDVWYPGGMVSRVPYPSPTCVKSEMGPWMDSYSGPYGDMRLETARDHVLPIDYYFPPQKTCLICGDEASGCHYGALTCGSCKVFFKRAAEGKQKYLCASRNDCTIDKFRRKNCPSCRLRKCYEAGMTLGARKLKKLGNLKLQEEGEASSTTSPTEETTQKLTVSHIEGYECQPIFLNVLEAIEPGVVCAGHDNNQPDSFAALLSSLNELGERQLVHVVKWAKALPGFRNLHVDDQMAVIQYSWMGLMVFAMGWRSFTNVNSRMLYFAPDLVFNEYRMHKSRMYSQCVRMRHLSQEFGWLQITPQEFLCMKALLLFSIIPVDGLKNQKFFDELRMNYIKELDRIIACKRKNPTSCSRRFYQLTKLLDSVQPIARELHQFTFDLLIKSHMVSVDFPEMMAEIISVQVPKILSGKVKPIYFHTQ
Method: Cell lysates from 293 cells overexpressing human GR (glucocorticoid receptor), AR (androgen receptor), MR (mineralocorticoid receptor) or PR (progesterone receptor) are used for competition binding assays to determine Ki values for test compounds. […] Competing compounds are added at various concentrations ranging from about 0.01 nM to 10 μM. Non-specific binding is determined in the presence of 500 nM dexamethasone for GR binding, 500 nM aldosterone for MR binding, or 500 nM methyltrienolone for AR and PR binding. The binding reaction (140 μl) is incubated for overnight at 4° C., then 70 μl of cold charcoal-dextran buffer (containing per 50 ml of assay buffer, 0.75 g of charcoal and 0.25 g of dextran) is added to each reaction. Plates are mixed 8 minutes on an orbital shaker at 4° C. Plates are then centrifuged at 3,000 rpm at 4° C. for 10 minutes. An aliquot of 120 μl of the mix is transferred to another 96-well plate and 175 μl of Wallac Optiphase “Hisafe 3” scintillation fluid is added to each well. Plates are sealed and shaken vigorously on an orbital shaker. After an incubation of 2 hrs, plates are read in a Wallac Microbeta counter. […] The Kd for ^3H-dexamethasone for GR binding, ^3H-methyltrienolone for AR binding, ^3H-aldosterone for MR binding, or ^3H-methyltrienolone for PR binding, is determined by saturation binding. The IC50 values for test compounds are converted to Ki using Cheng-Prusoff equation and the Kd determined by saturation binding assay. […]

[2] = biological target: T2, human androgen receptor (AR) (Homo sapiens, UniProt P10275); test: C2C12 AR/ARE reporter assay; assay type: cell-based
T2 construct: expressed in transfected cells; host or cells: mouse myoblast C2C12 cells, transiently co-transfected
T2 sequence (P10275 1-920): T1 sequence (P10275 1-920)
Method: As an indicator of agonist activity in muscle tissue, the C2C12 AR/ARE reporter assay is performed. Briefly, mouse myoblast C2C12 cells are co-transfected using FuGENE™. […] Cells are transfected in T150 cm^2 flasks in DMEM media with 4% or 10% Fetal Bovine Serum […]. After a 5 hour incubation, transfected cells are trypsinized, plated in 96 well dishes in DMEM media containing 10% charcoal-stripped FBS, incubated for 2 h and then exposed to various concentrations of test compounds ranging from about 0.01 nM to 10 μM. After 48 h of incubations with compounds, cells are lysed and luciferase activity is determined using standard techniques. Data is fit to a 4 parameter-fit logistics to determine EC50 values. The % efficacy is determined versus maximum stimulation obtained with 10 nM methyltrienolone. […]

[3] = C2C12, read-out: C2C12 % Efficacy
[4] = average of n trials, read-out: AR binding Ki
[5] = C2C12 AR/ARE reporter assay, average of n trials, read-out: C2C12 % Efficacy
[6] = C2C12 AR/ARE reporter assay, average of n trials, read-out: C2C12 EC50

Row | SMILES | pKi [1] | pEC50 [2] | Emax [2, 3] [%] | pKi [1, 4] | Emax [2, 5] [%] | pEC50 [2, 6]
1 | CC(C)C(=O)N[C@@H]1CCc2c(c3cc(C#N)ccc3n2Cc2csc(Cl)n2)C1 [Example 154, (R)-N-[9-(2-Chloro-thiazol-4-ylmethyl)-6-cyano-2,3,4,9-tetrahydro-1H-carbazol-3-yl]-isobutyramide] | 8.66 | 8.36 | 119 | – | – | –
2 | CC(C)C(=O)NC1CCc2c(c3cc(C(N)=S)ccc3n2Cc2cccc(F)c2)C1 (centres unmarked) [Example 64, N-(9-(3-Fluorobenzyl)-6-thiocarbamoyl-2,3,4,9-tetrahydro-1H-carbazol-3-yl)isobutyramide] | – | – | – | 7.84 | 89.3 | 8.03
3 | CC(C)C(=O)NC1CCc2c(c3cc(Cl)ccc3n2Cc2ccccc2N)C1 (centres unmarked) [Example 106, N-[9-(2-Amino-benzyl)-6-chloro2,3,4,9-tetrahydro-1H-carbazol-3-yl]-isobutyramide] | – | – | – | 8.09 | 82.1 | 8.64
4 | CC(C)C(=O)NC1CCc2c(c3cc(C#N)ccc3n2Cc2ccccc2O)C1 (centres unmarked) [Example 107, N-[6-Cyano-9-(2-hydroxy-benzyl)-2,3,4,9-tetrahydro-1H-carbazol-3-yl]-isobutyrarmide] | 8.51 | 9.30 | 86.2 | – | – | –
5 | Cc1nc(Cn2c3c(c4cc(C=O)ccc42)C[C@H](NC(=O)C(C)C)CC3)cs1 [Example 211, (R)-N-[6-Formyl-9-(2-methyl-thiazol-4-ylmethyl)-2,3,4,9-tetrahydro-1H-carbazol-3-yl]-isobutyramide] | 7.36 | 7.06 | 88.4 | – | – | –
6 | CC(C)C(=O)NC1CCc2c(c3cc(-c4cnc(N)s4)ccc3n2Cc2cccc(F)c2)C1 (centres unmarked) [Example 140] | 7.54 | 7.36 | 74.6 | – | – | –
7 | CC(C)C(=O)NC1CCc2c(c3cc(OC(F)(F)F)ccc3n2Cc2cccc(F)c2)C1 (centres unmarked) [Example 166] | 8.28 | 8.21 | 81.1 | – | – | –
8 | CC(C)C(=O)N[C@@H]1CCc2c(c3cc(C#N)ccc3n2Cc2cccc(F)n2)C1 [Example 183, (R)-N-[6-Cyano-9-(6-fluoro-pyridin-2-ylmethyl)-2,3,4,9-tetrahydro-1H-carbazol-3-yl]-isobutyramide] | – | – | – | 8.37 | 95.3 | 9.15
9 | CCCOc1ccc2c(c1)c1c(n2Cc2cccc(F)c2)CCC(NC(=O)C(C)C)C1 (centres unmarked) [Example 95, N-[9-(3-Fluoro-benzyl)-6-propoxy-2,3,4,9-tetrahydro-1H-carbazol-3-yl]-isobutyramide] | 7.91 | 7.74 | 79.6 | – | – | –
10 | COC(=O)NC1CCc2c(c3cc(C#N)ccc3n2Cc2cccc(F)c2)C1 (centres unmarked) [Example 184, [6-Cyano-9-(3-fluoro-benzyl)-2,3,4,9-tetrahydro-1H-carbazol-3-yl]-carbamic acid methyl ester] | 8.55 | 7.56 | 78.9 | – | – | –
11 | CCC(=O)NC1CCc2c(c3cc(OC)ccc3n2Cc2ccccc2)C1 (centres unmarked) [Example 66, N-(9-Benzyl-6-methoxy-2,3,4,9-tetrahydro-1H-carbazol-3-yl)-propionamide] | – | – | – | 8.16 | 79.8 | 7.72
12 | O=C(NC1CCc2c(c3cc(Br)ccc3n2Cc2cccc(F)c2)C1)C(F)(F)F (centres unmarked) [Example 174] | – | – | – | 8.15 | 65.2 | 7.06
13 | COc1ccc2c(c1)c1c(n2Cc2ccccc2F)CCC(NC(=O)C(C)C)C1 (centres unmarked) [Example 78] | 6.73 | 6.62 | 71.5 | – | – | –
14 | CC(C)C(=O)NC1CCc2c(c3cc(C#N)cc(F)c3n2Cc2cccc(F)c2)C1 (centres unmarked) [Example 121, N-[6-Cyano-8-fluoro-9-(3-fluoro-benzyl)-2,3,4,9-tetrahydro-1H-carbazol-3-yl]-isobutyramide] | 8.54 | 8.21 | 110 | – | – | –
15 | Cc1csc(Cn2c3c(c4cc(C#N)ccc42)C[C@H](NC(=O)C(C)C)CC3)n1 [Example 156, (R)-N-[6-Cyano-9-(4-methyl-thiazol-2-ylmethyl)-2,3,4,9-tetrahydro-1H-carbazol-3-yl]-isobutyramide] | 7.97 | 7.52 | 79.4 | – | – | –
16 | CC(C)Oc1ccc2c(c1)c1c(n2Cc2cccc(F)c2)CCC(NC(=O)C(C)C)C1 (centres unmarked) [Example 94, N-[9-(3-Fluoro-benzyl)-6-isopropoxy-2,3,4,9-tetrahydro-1H-carbazol-3-yl]-isobutyramide] | 7.42 | 7.39 | 101 | – | – | –
17 | CC(C)C(=O)NC1CCc2c(c3cc(Br)cc(F)c3n2Cc2cccc(F)c2)C1 (centres unmarked) [Example 120, N-[6-Bromo-8-fluoro-9-(3-fluoro-benzyl)-2,3,4,9-tetrahydro-1H-carbazol-3-yl]-isobutyramide] | 8.15 | 7.29 | 101 | – | – | –
18 | CN(C)C(=O)NC1CCc2c(c3cc(C#N)ccc3n2Cc2cccc(F)c2)C1 (centres unmarked) [Example 178, 3-[6-Cyano-9-(3-fluorobenzyl)-2,3,4,9-tetrahydro-1H-carbazol-3-yl]-1,1-dimethylurea] | – | – | – | 8.23 | 81.8 | 7.94
19 | CC(C)C(=O)NC1CCc2c(c3cc(OC(F)(F)F)ccc3n2Cc2cccc(F)n2)C1 (centres unmarked) [Example 162, N-[9-(6-Fluoro-pyridin-2-ylmethyl)-6-trifluoromethoxy-2,3,4,9-tetrahydro-1H-carbazol-3-yl]-isobutyramide] | 8.07 | 8.04 | 81.7 | – | – | –
20 | CC(C)C(=O)NC1CCc2c(c3cc(-c4ccncc4)ccc3n2Cc2cccc(F)c2)C1 (centres unmarked) [Example 134] | – | – | – | 6.42 | 37.6 | 6.44
21 | N#Cc1ccc2c(c1)c1c(n2Cc2cccc(F)c2)CCC(NS(=O)(=O)C2CC2)C1 (centres unmarked) [Example 177, Cyclopropanesulfonic acid[6-cyano-9-(3-fluoro-benzyl)-2,3,4,9-tetrahydro-1H-carbazol-3-yl)-amide] | 8.42 | 6.99 | 75.2 | – | – | –
22 | COc1ccc(Cn2c3c(c4cc(C#N)ccc42)CC(NC(=O)C(C)C)CC3)cc1 (centres unmarked) [Example 87] | 7.75 | – | 10.6 | – | – | –
23 | O=C(NC1CCc2c(c3cc(OC(F)(F)F)ccc3n2Cc2cccc(F)n2)C1)C1CC1 (centres unmarked) [Example 163] | – | – | – | 7.90 | 75.2 | 7.43
24 | CC(C)C(=O)NC1CCc2c(c3cc(-c4ccc(N)nc4)ccc3n2Cc2cccc(F)c2)C1 (centres unmarked) [Example 142] | – | – | – | 7.50 | 61.8 | 7.63
25 | CC(C)C(=O)NC1CCc2c(c3cc(N(C)C)ccc3n2Cc2cccc(F)c2)C1 (centres unmarked) [Example 62, N-[6-Dimethylamino-9-(3-fluoro-benzyl)-2,3,4,9-tetrahydro-1H-carbazol-3-yl]-isobutyramide] | 6.96 | 6.43 | 56.1 | – | – | –
26 | CC(C)C(=O)NC1CCc2c(c3cc(-c4cccnc4)ccc3n2Cc2cccc(F)c2)C1 (centres unmarked) [Example 132] | 8.13 | 8.27 | 83.9 | – | – | –
